Assay results as given in ChEMBL document CHEMBL3227984, “5-Substituted uracil arabinonucleosides as potential antiviral agents” (J Med Chem, 1979).
The source made the active and inactive calls. No cut-off for these calls is given here.

Test system: Vaccinia virus
Assay: Antiviral activity against Vaccinia virus infected in human skin fibroblasts assessed as inhibition of virus-induced cytopathogenicity
Format: functional, organism-based
Conditions: Orthopoxvirus vaccinia

| SMILES | inhibition |
| --- | --- |
| O=c1[nH]c(=O)n([C@@H]2O[C@H](CO)[C@@H](O)[C@@H]2O)cc1[N+](=O)[O-] | Active |
| O=c1[nH]c(=O)n([C@@H]2O[C@H](CO)[C@@H](O)[C@@H]2O)cc1O | Active |
| Cc1cn([C@@H]2O[C@H](CO)[C@@H](O)[C@@H]2O)c(=O)[nH]c1=O | Active |
| O=c1ccn([C@@H]2O[C@H](CO)[C@@H](O)[C@@H]2O)c(=O)[nH]1 [ARAURIDINE] | Active |
| N#Cc1cn([C@@H]2O[C@H](CO)[C@@H](O)[C@@H]2O)c(=O)[nH]c1=O | Active |
